Reference: ChEMBL document CHEMBL3621090, “Discovery of a novel Kv7 channel opener as a treatment for epilepsy” (Bioorg Med Chem Lett, 2015)

Key:
[1] = Permeability in dog RRCK cells after 2 hrs by transwell assay; assay type: ADME, cell-based, Canis lupus familiaris, MDCKII-LE; details: mdck, read-out: permeability
[2] = biological target: Voltage-gated potassium channel, KQT; KCNQ2(Kv7.2)/KCNQ3(Kv7.3) (Homo sapiens, UniProt O43525+O43526); assay: (§1) Activation of human Kv7.2/7.3 expressed in CHOK1 cells; assay type: cell-based, CHO-K1; for max activation: test concentration or dose not given here
Chain of Voltage-gated potassium channel, KQT; KCNQ2(Kv7.2)/KCNQ3(Kv7.3) (O43526 whole entry): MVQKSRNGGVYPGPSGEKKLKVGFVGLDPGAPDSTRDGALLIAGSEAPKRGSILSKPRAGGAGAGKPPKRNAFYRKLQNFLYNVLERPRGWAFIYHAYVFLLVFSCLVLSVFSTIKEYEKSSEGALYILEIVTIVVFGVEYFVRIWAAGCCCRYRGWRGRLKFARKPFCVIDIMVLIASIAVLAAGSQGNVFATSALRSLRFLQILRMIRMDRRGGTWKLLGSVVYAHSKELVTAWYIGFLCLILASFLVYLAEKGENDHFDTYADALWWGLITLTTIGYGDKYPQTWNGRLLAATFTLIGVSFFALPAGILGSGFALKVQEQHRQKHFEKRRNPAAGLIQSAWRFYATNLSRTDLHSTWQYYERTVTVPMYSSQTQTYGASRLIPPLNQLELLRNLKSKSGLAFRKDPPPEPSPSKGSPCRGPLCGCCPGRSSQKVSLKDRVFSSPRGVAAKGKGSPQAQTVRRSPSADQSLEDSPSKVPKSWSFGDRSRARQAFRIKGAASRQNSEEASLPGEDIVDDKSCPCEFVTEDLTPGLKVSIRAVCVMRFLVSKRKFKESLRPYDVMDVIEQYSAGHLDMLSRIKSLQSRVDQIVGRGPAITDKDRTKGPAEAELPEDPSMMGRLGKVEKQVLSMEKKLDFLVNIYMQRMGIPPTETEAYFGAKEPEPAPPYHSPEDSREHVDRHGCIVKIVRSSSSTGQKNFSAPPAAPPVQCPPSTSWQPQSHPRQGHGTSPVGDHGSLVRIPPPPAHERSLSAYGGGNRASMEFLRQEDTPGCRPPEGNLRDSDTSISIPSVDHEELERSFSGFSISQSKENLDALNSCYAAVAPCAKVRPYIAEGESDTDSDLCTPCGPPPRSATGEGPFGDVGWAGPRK
Chain of Voltage-gated potassium channel, KQT; KCNQ2(Kv7.2)/KCNQ3(Kv7.3) (O43525 whole entry): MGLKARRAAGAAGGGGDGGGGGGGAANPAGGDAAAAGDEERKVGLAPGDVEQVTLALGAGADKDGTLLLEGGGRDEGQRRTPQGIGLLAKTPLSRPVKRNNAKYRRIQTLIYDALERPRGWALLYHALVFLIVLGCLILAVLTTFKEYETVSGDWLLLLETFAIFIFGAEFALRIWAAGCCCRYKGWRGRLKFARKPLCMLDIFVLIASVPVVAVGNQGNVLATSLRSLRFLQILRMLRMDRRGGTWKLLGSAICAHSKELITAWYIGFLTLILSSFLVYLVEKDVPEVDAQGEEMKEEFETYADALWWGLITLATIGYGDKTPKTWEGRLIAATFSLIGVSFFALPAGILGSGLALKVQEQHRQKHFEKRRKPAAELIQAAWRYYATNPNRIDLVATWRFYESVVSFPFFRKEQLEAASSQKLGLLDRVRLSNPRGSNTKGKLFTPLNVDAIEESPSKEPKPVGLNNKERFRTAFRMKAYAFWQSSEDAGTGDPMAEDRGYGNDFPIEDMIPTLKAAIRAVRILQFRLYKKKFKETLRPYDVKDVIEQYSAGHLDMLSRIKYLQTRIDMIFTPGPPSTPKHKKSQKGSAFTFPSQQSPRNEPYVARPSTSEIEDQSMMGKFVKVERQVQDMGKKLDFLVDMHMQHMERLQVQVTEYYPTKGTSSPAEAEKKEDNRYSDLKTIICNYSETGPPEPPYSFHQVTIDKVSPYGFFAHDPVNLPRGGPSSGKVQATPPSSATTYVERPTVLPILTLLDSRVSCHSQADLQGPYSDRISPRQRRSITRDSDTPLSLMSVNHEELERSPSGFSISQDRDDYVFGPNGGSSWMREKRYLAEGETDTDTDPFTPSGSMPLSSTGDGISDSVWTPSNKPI

[3] = biological target: Voltage-gated potassium channel, KQT; KCNQ2(Kv7.2)/KCNQ3(Kv7.3) (Homo sapiens) (UniProt O43526+O43525); assay: as §1; assay type: cell-based; details: CHO-K1
[4] = Toxicity in human THLE cells assessed as ATP depletion; assay type: cell-based
MDCK = assay: Efflux ratio of permeability from basolateral to apical over apical to basolateral side in MDCK cells transfected with MDR1; assay type: ADME, cell-based, Canis lupus familiaris; details: dog
[5] = Intrinsic clearance in human liver microsomes measured over 1 hr in presence of NADPH regenerating system; assay type: ADME; details: read-out: CLH
Liver microsome = assay: Stability in human liver microsomes in absence of NADPH; assay type: ADME

SMILES | Papp at 2 h [1] [×10⁻⁶ cm/s] | EC50 [2] [nM] | max activation [3] [%] | IC50 [4] [nM] | Ratio (MDCK) | CLint scaled [5] [mL/min/kg] | Stability (Liver microsome)
COc1nc(N2CCCCC2)nc(OC)c1NC(=O)CC(C)(C)C | 22.3 | 64 | 182 | > 300000 | 1.59 | 43.7 | 
COCCN(C)c1nc(OC)c(NC(=O)CC(C)(C)C)c(OC)n1 |  | 206 | 166 | > 300000 | 1.11 | 21 | 
COc1nc(N2CCSCC2)nc(OC)c1NC(=O)CC(C)(C)C |  | 24 | 92 |  |  | 69.6 | 
COc1nc(N2CCC(OC)CC2)nc(OC)c1NC(=O)CC(C)C |  | 630 | 138 |  |  |  | 
COc1nc(N2CCC(OC)CC2)nc(OC)c1NC(=O)CCC(C)C |  | 304 | 132 |  |  |  | 
COc1nc(N2CC3(COC3)C2)nc(OC)c1NC(=O)CC(C)(C)C |  | 9190 | 106 |  |  |  | 
COc1nc(N2CCC(OC)CC2)nc(OC)c1NC(=O)CCC1CCCC1 | 15.2 | 40 | 126 | 80500 | 1.21 |  | Unstable
COc1nc(N2CCC(F)(F)CC2)nc(OC)c1NC(=O)CC(C)(C)C |  | 50 | 99 | > 300000 | 1.29 | 21.6 | 
CCOC(=O)Nc1ccc(NCc2ccc(F)cc2)cc1N [EZOGABINE] | 34.2 |  |  | 213000 | 1.13 | < 8 | 
COc1nc(N2CC(OC)C2)nc(OC)c1NC(=O)CC(C)(C)C |  | 961 | 103 |  |  |  | 
COc1nc(N2CC(F)(F)C2)nc(OC)c1NC(=O)CC(C)(C)C | 28 | 110 | 103 | > 300000 | 1.29 | 18.9 | 
COc1nc(N2CCC(OC(C)C)CC2)nc(OC)c1NC(=O)CC(C)(C)C |  | 358 | 145 |  |  |  | 
COc1nc(N2C[C@@H]3C[C@H]2CO3)nc(OC)c1NC(=O)CC(C)(C)C |  | 1890 | 101 |  |  |  | 
COc1nc(N2CCC(OC)CC2)nc(OC)c1NC(=O)CC1CCCC1 |  | 343 | 143 |  |  |  | 
COc1nc(N2CCC(OC)CC2)nc(OC)c1NC(=O)CC1CCCCC1 |  | 162 | 152 |  |  |  | 
COc1nc(N2CCOCC2)nc(OC)c1NC(=O)CC(C)(C)C | 25.9 | 164 | 95 | > 300000 | 1.11 | < 10.4 | 
COc1nc(N2CCCOCC2)nc(OC)c1NC(=O)CC(C)(C)C | 20.2 | 62 | 85 | > 300000 | 1.25 | 24.4 | 
